Source: patent US7129238B2, “Mandelic acid derivatives” (Hoffmann-La Roche Inc., priority 2002, dated 2006)
Counter-ions that a name gives are not always drawn.

These compounds were tested against T1, factor VIIa/tissue factor complex (Homo sapiens, UniProt P08709) (assay: inhibition of the amidolytic activity of factor VIIa/tissue factor complex (chromogenic peptide substrate)). Conditions: soluble factor VIIa, substrate Chromozym-tPA, pH 7.5, room temperature.
T1 construct: 9 nM of soluble factor VIIa
T1 sequence (P08709 213-466 limits assumed): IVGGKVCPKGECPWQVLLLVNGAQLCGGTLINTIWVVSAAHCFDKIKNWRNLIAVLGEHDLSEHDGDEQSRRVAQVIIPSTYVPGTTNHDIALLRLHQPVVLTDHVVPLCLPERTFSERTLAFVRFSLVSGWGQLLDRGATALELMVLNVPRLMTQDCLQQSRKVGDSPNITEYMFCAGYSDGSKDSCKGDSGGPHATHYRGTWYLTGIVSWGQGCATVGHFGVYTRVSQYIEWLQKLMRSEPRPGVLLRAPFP
T1 sequence (P08709 61-212 limits assumed): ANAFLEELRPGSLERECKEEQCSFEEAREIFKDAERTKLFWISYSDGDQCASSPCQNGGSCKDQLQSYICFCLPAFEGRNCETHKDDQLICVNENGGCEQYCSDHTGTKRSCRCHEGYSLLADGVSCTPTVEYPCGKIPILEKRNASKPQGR
T1 sequence (P13726 33-295 partner): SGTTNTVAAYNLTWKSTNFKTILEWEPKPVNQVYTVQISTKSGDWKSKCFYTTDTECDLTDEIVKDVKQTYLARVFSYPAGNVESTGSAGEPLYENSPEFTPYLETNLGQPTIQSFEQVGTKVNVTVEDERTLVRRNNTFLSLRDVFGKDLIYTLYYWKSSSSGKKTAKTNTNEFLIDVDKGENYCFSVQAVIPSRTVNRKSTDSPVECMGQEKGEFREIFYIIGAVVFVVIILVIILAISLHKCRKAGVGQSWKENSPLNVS
Format: biochemical
Description: The measurements were carried out by an automated robotic assay on microtitre plates at room temperature. To this end, 100 μL of a solution of 26 nM of tissue factor, 9 nM of soluble factor VIIa and 8 mM of calcium chloride were added to 25 μL of a solution of the inhibitor in a buffer [pH 7.5, 100 mM, comprising 0.14M NaCl, 0.1M N-(2-hydroxyethyl)piperazine-N′-(2-ethanesulphonic acid) (HEPES), 0.5 mg/l of fatty-acid-free BSA (bovine serum albumin) and 0.05% NaN3] in each well of the plate. After an incubation time of 15 minutes the reaction was started by the addition of 50 μl of chromogenic substrate Chromozym-tPA (3.5 mM, MeSO2-D-Phe-Gly-Arg-paranitroanilide) and the hydrolysis of the substrate was followed spectrophotometrically on a kinetic microtitre plate reader over 10 minutes. Using the plot of the inhibition curves, the Ki values were determined according to the method described in Biochem. J. 55, 1953, 170–171.

Compound	Ki
CCOC(C(=O)NCc1c(F)cc(C(=N)N)cc1F)c1c(F)cc(-c2ccc(N)nc2)cc1F (racemic) [Example 336.2, (RS)-2-[4-(6-amino-pyridin-3-yl)-2,6-difluoro-phenyl]-N-(4-carbamimidoyl-2,6-difluoro-benzyl)-2-ethoxy-acetamide acetate]	598 nM
(RS)-(4-carbamimidoyl-2-carbamoylmethoxy-benzyl)-2-[2,6-difluoro-4-(pyridin-2-ylmethoxy)-phenyl]-2-ethoxy-acetamide hydrochloride [Example 335.5]	17 nM
CCOC(C(=O)NCc1ccc(C(=N)N)cc1NCC(=O)O)c1ccc(OC)cc1F (racemic) [Example 329, (RS)-(5-carbamimidoyl-2-j [2-ethoxy-2-(2-fluoro-4-methoxy-phenyl)-acetylamino]-methyl)-phenylamino)-acetic acid acetate]	121 nM
CCOc1ccc(C(OC)C(=O)NCc2ccc(C(=N)N)cc2)c(F)c1OCC (racemic) [Example 33.3, (RS)-N-(4-carbamimidoyl-benzyl)-2-(3,4-diethoxy-2-fluoro-phenyl)-2-methoxy-acetamide hydrochloride]	490 nM
(RS)-{4-Carbamimidoyl-2-[(pyridin-2-ylmethyl)-amino]-benzyl}-2-ethoxy-2-(2-fluoro-4-methoxy-phenyl)-acetamide hydrochloride [Example 325]	77 nM
COC(C(=O)NCc1ccc(C(=N)N)cc1)c1ccc(OCCc2ccc(F)cc2)cc1F (racemic) [Example 72.2, (RS)-N-(4-carbamimidoyl-benzyl)-2-{2-fluoro-4-[2-(4-fluoro-phenyl)-ethoxy]-phenyl}-2-methoxy-acetamide hydrochloride]	2100 nM
COc1cc(F)c(C(OC)C(=O)NCc2ccc(C(=N)N)cc2)cc1OC (racemic) [Example 24.3, (RS)-N-(4-carbamimidoyl-benzyl)-2-(2-fluoro-4,5-dimethoxy-phenyl)-2-methoxy-acetamide hydrochloride]	2210 nM
COc1ccc2cc(C(OC)C(=O)NCc3ccc(C(=N)N)cc3)ccc2c1 (racemic) [Example 53.3, (RS)-N-(4-carbamimidoyl-benzyl)-2-methoxy-2-(6-methoxy-naphthalen-2-yl)-acetamide hydrochloride]	2260 nM

More lines, now with the values ahead:

Ki	Compound
20 nM	CCOC(C(=O)NCc1ccc(C(=N)N)cc1OCC(N)=O)c1c(F)cc(OC)cc1F (racemic) [Example 126.3, (RS)-N-(4-carbamimidoyl-2-carbamoylmethoxy-benzyl)-2-(2,6-difluoro-4-methoxy-phenyl)-2-ethoxy-acetamide hydrochloride]
320 nM	CCOC(C(=O)NCc1ccc(C(=N)N)cc1)c1c(F)cc(-c2ccc(N)cn2)cc1F (racemic) [Example 269, (RS)-2-[4-(5-Amino-pyridin-2-yl)-2,6-difluoro-phenyl]-N-(4-carbamimidoyl-benzyl)-2-ethoxy-acetamide hydrochloride]
154 nM	CCOC(C(=O)NCc1ccc(C(=N)N)cc1)c1c(F)cc(-c2ccc(N)nc2)cc1F (racemic) [Example 271, (RS)-(2-[4-(6-Amino-pyridin-3-yl)-2,6-difluoro-phenyl]-N-(4-carbamimidoyl-benzyl)-2-ethoxy-acetamide hydrochloride]
586 nM	CCOC(C(=O)NCc1ccc(C(=N)N)cc1)c1c(F)cc(OCc2ccccn2)cc1F (racemic) [Example 294.2, (RS)-N-(4-carbamimidoyl-benzyl)-2-[2,6-difluoro-4-(pyridin-2-ylmethoxy)-phenyl]-2-ethoxy-acetamide hydrochloride]
371 nM	CCOC(C(=O)NCc1ccc(C(=N)N)cc1)c1c(F)cc(-c2cccnc2)cc1F (racemic) [Example 267, (RS)-N-(4-Carbamimidoyl-benzyl)-2-(2,6-difluoro-4-pyridin-3-yl-phenyl)-2-ethoxy-acetamide hydrochloridr]
242 nM	CCOC(C(=O)NCc1ccc(C(=N)N)cc1)c1c(F)cc(-c2cnc(N)nc2)cc1F (racemic) [Example 266, (RS)-2-[4-(2-Amino-pyrimidin-5-yl)-2,6-difluoro-phenyl]-N-(4-carbamimidoyl-benzyl)-2-ethoxy-acetamide hydrochloride]
44 nM	COc1cc(F)c(C(OC)C(=O)NCc2ccc(C(=N)N)cc2OCc2ccccn2)c(F)c1 (racemic) [Example 141, (RS)-N-[4-carbamimidoyl-2-(pyridin-2-ylmethoxy)-benzyl]-2-(2,6-difluoro-4-methoxy-phenyl)-2-methoxy-acetamide hydrochloride]
65 nM	CCOC(C(=O)NCc1ccc(C(=N)N)cc1NCc1ccccc1)c1ccc(OC)cc1F (racemic) [Example 323, (RS)-N-(2-Benzylamino-4-carbamimidoyl-benzyl)-2-ethoxy-2-(2-fluoro-4-methoxy-phenyl)-acetamide acetate]
21 nM	CCOC(C(=O)NCc1ccc(C(=N)N)cc1OCC(=O)NCCOC)c1c(F)cc(OC)cc1F (racemic) [Example 129, (RS)-N-{4-Carbamimidoyl-2-[(2-methoxy-ethylcarbamoyl)-methoxy]-benzyl}-2-(2,6-difluoro-4-methoxy-phenyl)-2-ethoxy-acetamide hydrochloride]
